Measured values as given in US10154961B2, “Pomegranate oil for preventing and treating neurodegenerative diseases” (Hadasit Medical Research Services and Development Ltd., priority 2012, dated 2018).

Test system: fibroblast isolated from TgMHu2ME199K mice
Assay type: cell-based

With `CCCC\C=C/C=C/C=C\CCCCCCCC(=O)O` [punicic acid] the “effect on copper toxicity, percentage of cell survival” value was “significantly inhibited the toxic effect of cooper”.
